Earlier results on two compounds are cited in patent US11439614B2, “Fish egg extracts, omega-3 lipid-based compositions and uses thereof” (BIOFLASH INC., priority 2017, dated 2022).

The test system of the data set is ADHD symptoms.

In the case of `O=S(=O)([O-])[O-].[Zn+2]` [zinc sulfate], under “150 mg for 12 weeks alone or 55 mg for 6 weeks with a conventional drug, 440 children”, the “Help for children with ADHD” value is on record as “could significantly help children with this condition”.
With `[Mg+2]` [magnesium], the Hyperactivity result (200 mg daily for 6 months, 75 children with ADHD, vs conventional treatment (Starobat-Hermelin et al, 1997)) is “decreased Hyperactivity”.
